In paper PMC4903021 (Organic letters, 2016):

Target: T1, CazL (Chaetomium globosum, UniProt Q2GWL0)
T1 sequence (Q2GWL0 1-455): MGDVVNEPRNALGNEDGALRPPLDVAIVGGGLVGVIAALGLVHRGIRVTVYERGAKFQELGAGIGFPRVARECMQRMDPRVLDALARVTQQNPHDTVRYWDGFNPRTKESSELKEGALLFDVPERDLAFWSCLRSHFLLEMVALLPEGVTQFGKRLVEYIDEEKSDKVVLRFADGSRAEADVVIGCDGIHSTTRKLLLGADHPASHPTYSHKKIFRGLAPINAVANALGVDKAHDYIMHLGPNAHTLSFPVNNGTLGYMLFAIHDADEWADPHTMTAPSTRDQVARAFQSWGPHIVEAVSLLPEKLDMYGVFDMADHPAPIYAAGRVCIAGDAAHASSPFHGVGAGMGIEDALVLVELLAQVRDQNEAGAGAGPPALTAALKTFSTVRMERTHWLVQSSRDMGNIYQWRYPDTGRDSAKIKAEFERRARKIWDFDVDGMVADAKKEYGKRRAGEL
Assay: initial velocity kinetics of pyranoquinone formation
Assay type: biochemical
Settings: formation of 5

cazaldehyde A [compound 1]
Km: 73 ± 9.93 µM
